Patent US5149711A, “2-cyclopentenone derivatives” (Teijin Limited, priority 1988, dated 1992)
Converted amounts (≈) assume the structure as drawn.

Experiments:
L1210 leukemia cells = assay: Measurement of the action of inhibiting proliferation of L1210 leukemia cell; type: cell-based; conditions: Mus musculus, L1210, 96 h; RPMI medium with 10% FCS, 37° C., 4 days, trypan blue count of surviving cells
Experimental: (1) Measurement of the action of inhibiting Proliferation of L1210 leukemia cell
L1210 leukemia cells were added to an RPMI medium containing 10% FCS (fetal calf serum), and the concentration of the cells was adjusted to […]. Each of the test compounds shown in Table I was dissolved in 99.5% ethanol. Prior to use, the final concentration of the ethanol solution was adjusted to less than 0.1%, and it was added to the culture medium. The culture medium was then maintained at 37° C. in a stationary condition for 4 days. After the cultivation, the number of surviving cells was measured by dyeing with trypan blue. As a control, 0.1% ethanol was used. A dose-reaction curve plotted from the ratios of proliferation against the control, and IC50 was determined.

B16 melanoma = assay: Measurement of the antitumor effect on B16 melanoma mouse tumor (tumor weight); type: in vivo; conditions: intraperitoneal, day 1-9, tumor weight on day 18, BDF1 mice
Experimental: (3) Measurement of the antitumor effect on B16 melanoma mouise tumor
For B16 melanoma, BDF1 mice were implanted subcutaneously with 0.2 ml of a 10% tumor homogenate in saline in the left flank. The test compounds were each given intraperitoneally on day 1-9. The activity was assessed by measuring the tumor weight on day 18.

[1] = test system: P388 mouse leukemia cells; assay: Measurement of the antitumor effect on P388 mouse leukemia tumor (increase of life span); type: in vivo; conditions: intraperitoneal, 9 days, BDF1 mice
Experimental: (2) Measurement of the antitumor effect on P338 mouse leukemia tumor
1×10^6 P388 mouse leukemia cells were intraperitoneally administered to BDF1 mice. After the lapse of 24 hours, each of the test compounds shown in Table II was intraperitoneally administered to the mice for 9 days. The periods of survival of these animals were examined and the increase of their life span (ILS %) was determined.

Row | SMILES | IC50 (L1210 leukemia cells) [µg/mL] | Proliferation inhibitory rate (B16 melanoma; 5 mg/kg/day) [%] | Proliferation inhibitory rate (B16 melanoma; 10 mg/kg/day) [%] | increase of life span (ILS) ([1]; 5 mg/kg/day) [%] | increase of life span (ILS) ([1]; 10 mg/kg/day) [%] | increase of life span (ILS) ([1]; 20 mg/kg/day) [%]
1 | CC(=O)OC[C@@H](O)[C@H](/C=C/C=C1C(=O)C=CC1(O)CCCCOc1ccccc1)OC(C)=O (stereo partly drawn) [5-[(4S,5R)-4,6-diacetoxy-5-hydroxy-2-hexenylidene]-4-(4-phenoxybutyl)-4-hydroxy-2-cyclopentenone] | 0.2 (≈ 0.436 µM) | 9.6 | 45.5 |  |  | 
2 | O=C1C=CC(O)(CCCCOc2ccccc2)C1=C/C=C/[C@H](O)[C@H](O)CO (stereo partly drawn) [5-[(4S,5R)-4,5,6-trihydroxy-2-hexenylidene]-4-(4-phenoxybutyl)-4-hydroxy-2-cyclopentenone] | 0.8 (≈ 2.14 µM) |  |  | 24.5 | 32.7 | 44.9
3 | O=C1C=CC(O)(CCCCOc2ccccc2)/C1=C\C=C\C(O)CCCO (stereo not shown) [5-[(E)-4,7-dihydroxy-(2E)-heptenylidene]-4-(4-phenoxybutyl)-4-hydroxy-2-cyclopentenone, reference compound] |  | -13.5 | 32.7 | 21.4 | 31.2 | -69.2
4 | CC(=O)OC[C@@H](OC(C)=O)[C@H](/C=C/C=C1C(=O)C=CC1(O)CCCCOc1ccccc1)OC(C)=O (stereo partly drawn) [5-[(4S,5R)-4,5,6-triacetoxy-2-hexenylidene]-4-(4-phenoxybutyl)-4-hydroxy-2-cyclopentenone] | 0.1 (≈ 0.2 µM) |  |  |  |  | 
